According to PubChem BioAssay AID312 (DTP/NCI, 2004):
Values joined by “and” are separate entries in the source; they are usually repeats but may differ in a detail not shown here. Equal entries are not always repeated. Toxic doses and inconclusive results are not listed.

Tested on: BDF1 mice, C1498 leukemia ip, median survival T/C
Test: NCI In Vivo Anticancer Drug Screen. Data for tumor model C1498 Myeloid Leukemia (intraperitoneal) in B6D2F1 (BDF1) mice
Settings: endpoint: median survival time, higher = longer survival
Experimental: The antitumor activity of compounds was measured in mice bearing transplantable tumors. Survival or tumor size were measured and the results are expressed as the measurement made in the treated group (T) divided by the measurement made in the vehicle treated control group (C). The tumor model used in this assay is C1498 Myeloid Leukemia (intraperitoneal) in B6D2F1 (BDF1) mice

[1] = dose: 6.0 mg/kg/injection, schedule: Q01DX010 (ip), vehicle: saline
[2] = dose: 8.0 mg/kg/injection, schedule: Q01DX010 (ip), vehicle: saline
[3] = dose: 200.0 mg/kg/injection, schedule: Q01DX010 (ip), vehicle: saline
[4] = dose: 400.0 mg/kg/injection, schedule: Q01DX010 (ip), vehicle: saline
[5] = dose: 16.0 mg/kg/injection, schedule: Q01DX010 (ip), vehicle: saline
[6] = dose: 25.0 mg/kg/injection, schedule: Q01DX010 (ip), vehicle: saline
[7] = dose: 50.0 mg/kg/injection, schedule: Q01DX010 (ip), vehicle: saline
[8] = dose: 100.0 mg/kg/injection, schedule: Q01DX010 (ip), vehicle: saline

Compound: O=C(Nc1ccc(C2=NCCN2)cc1)c1ccc(C(=O)Nc2ccc(C3=NCCN3)cc2)c([N+](=O)[O-])c1
- T/C [1]: 96 % of control and 119 % of control
- T/C [2]: 100 % of control
- T/C (dose: 18.0 mg/kg/injection, schedule: Q01DX010 (ip), vehicle: saline): 103 % of control

Compound: O=C(O)c1[nH]c(=O)[nH]c(=O)c1F
- T/C (dose: 1.25 mg/kg/injection, schedule: Q01DX010 (ip), vehicle: saline): 116 % of control and 118 % of control
- T/C (dose: 2.5 mg/kg/injection, schedule: Q01DX010 (ip), vehicle: saline): 122 % of control
- T/C (dose: 5.0 mg/kg/injection, schedule: Q01DX010 (ip), vehicle: saline): 158 % of control and 163 % of control
- T/C (dose: 10.0 mg/kg/injection, schedule: Q01DX010 (ip), vehicle: saline): 95 % of control and 109 % of control

Compound: N=C(N)c1ccc(Nc2ccc(C(=N)N)cc2)cc1
- T/C (dose: 1.5 mg/kg/injection, schedule: Q01DX010 (ip), vehicle: saline): 100 % of control
- T/C (dose: 3.0 mg/kg/injection, schedule: Q01DX010 (ip), vehicle: saline): 90 % of control
- T/C [1]: 86 % of control
- T/C (dose: 12.0 mg/kg/injection, schedule: Q01DX010 (ip), vehicle: saline): 86 % of control

Compound: O=c1cnn(C2OC(CO)C(O)C2O)c(=O)[nH]1 (configuration not stated)
- T/C [3]: 104 % of control
- T/C [4]: 100 % of control
- T/C (dose: 800.0 mg/kg/injection, schedule: Q01DX010 (ip), vehicle: saline): 100 % of control

Compound: C=CC(CN1CC1)OC(C)=O (configuration not stated)
- T/C (dose: 2.0 mg/kg/injection, schedule: Q01DX010 (ip), vehicle: saline): 104 % of control
- T/C (dose: 4.0 mg/kg/injection, schedule: Q01DX010 (ip), vehicle: saline): 122 % of control
- T/C [5]: 104 % of control

Compound: CN(C)/N=N/c1nc[nH]c1C(N)=O
- T/C [6]: 108 % of control
- T/C [7]: 112 % of control
- T/C [8]: 158 % of control
- T/C [3]: 158 % of control and 159 % of control
- T/C [4]: 118 % of control

Compound: CC(=O)Nc1ccc2nc3ccc(NC(C)=O)cc3[n+](-c3ccccc3)c2c1
- T/C [6]: 107 % of control
- T/C [7]: 96 % of control
- T/C [8]: 88 % of control
- T/C [3]: 88 % of control

Compound: Cc1cc(N(CCCl)CCCl)ccc1N=Nc1ccccc1C(=O)O
- T/C (dose: 20.0 mg/kg/injection, schedule: Q01DX010 (ip), vehicle: saline): 113 % of control

Compound: Nc1nc(SCc2ccccc2)c2[nH]cnc2n1
- T/C [2]: 100 % of control
- T/C [5]: 105 % of control
- T/C (dose: 32.0 mg/kg/injection, schedule: Q01DX010 (ip), vehicle: saline): 105 % of control
- T/C (dose: 64.0 mg/kg/injection, schedule: Q01DX010 (ip), vehicle: saline): 90 % of control

Compound: Nc1c(Br)cc2c(c1Br)Cc1cc([N+](=O)[O-])ccc1-2
- T/C (dose: 31.3 mg/kg/injection, schedule: Q01DX010 (ip), vehicle: saline): 91 % of control
- T/C (dose: 62.5 mg/kg/injection, schedule: Q01DX010 (ip), vehicle: saline): 91 % of control and 100 % of control
- T/C (dose: 125.0 mg/kg/injection, schedule: Q01DX010 (ip), vehicle: saline): 91 % of control
- T/C (dose: 250.0 mg/kg/injection, schedule: Q01DX010 (ip), vehicle: saline): 91 % of control and 95 % of control
- T/C (dose: 500.0 mg/kg/injection, schedule: Q01DX010 (ip), vehicle: saline): 95 % of control

Compound: O=NN(CCCl)C(=O)NCCCl
- T/C (dose: 30.0 mg/kg/injection, schedule: Q01DX001 (ip), vehicle: saline + alcohol): 420 % of control
- T/C (dose: 35.0 mg/kg/injection, schedule: Q01DX001 (ip), vehicle: saline + alcohol): 247 % of control

Compound: C#CCN(C)Cc1ccccc1
- T/C [6]: 104 % of control
- T/C [7]: 100 % of control and 90 % of control
- T/C [8]: 90 % of control
- T/C [3]: 100 % of control and 90 % of control
